Results as given in patent publication US20130035255A1, “CONTROLLED RELEASE HYBRID SYSTEMS” (priority 2010, published 2013).
Where no end group is shown, it is not given here.

What was measured:
HIV integrase = HIV integrase (Human immunodeficiency virus type 1 group M subtype B, UniProt P04585); test: biochemical; assay type: binding
[1] = target: GAL4^AD-HIV integrase (1-210 a.a.) and GAL4^BD-PR^LBD-INF5 (Homo sapiens, UniProt P06401); test: steroid release two hybrid yeast LacZ assay (CUG fluorescence); assay type: cell-based; settings: strain expressing integrase fused to GAL4^AD and the interacting peptide
GAL^BD-PRNHR-GAL^AD = GAL^BD-PRNHR-GAL^AD (Homo sapiens, UniProt P06401); assay type: cell-based, yeast; settings: control strain, FIG. 4
[2] = target: HIV integrase (1-210 aa) and the peptide LYETILILLFLDVDT (SEQ ID NO:7) (Human immunodeficiency virus type 1 group M subtype B, UniProt P04585, G1270S/R1274K); assay type: cell-based; settings: yeast screening strain
[3] = target: T1, GAL4^AD control (pVT 702, GAL4 activation domain alone); test: steroid release yeast two-hybrid, LacZ reporter
T1 construct: also called pADH-GAL^AD base vector
T1 chain: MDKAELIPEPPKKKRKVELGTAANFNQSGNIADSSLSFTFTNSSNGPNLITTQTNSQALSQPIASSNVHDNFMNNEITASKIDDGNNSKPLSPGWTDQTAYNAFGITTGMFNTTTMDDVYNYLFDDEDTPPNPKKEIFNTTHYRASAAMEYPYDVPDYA

Molecule: LYETILILLFLDVDT [SEQ ID NO:7, LYETILILLFLDVDT]
- Kd (HIV integrase): ~5 µM

Molecule: CC(=O)[C@H]1CC[C@H]2[C@@H]3CCC4=CC(=O)CC[C@]4(C)[C@H]3CC[C@]12C [progesterone]
- signal (RFU) [1]: increase in signal
- signal-to-background (GAL^BD-PRNHR-GAL^AD): ~100
- signal-to-background ([2]; 8 μM progesterone): ~4
- expression of beta-galactosidase ([2]; FIG. 3 dose response): stimulated expression of beta-galactosidase

B1: GAL4^BD-PR^LBD-INF5 hybrid protein (GAL4 DNA binding domain fused to the progesterone receptor ligand binding domain and the HIV integrase inhibitory peptide … (other)
chain: MKLLSSIEQACDICRLKKLKCSKEKPKCAKCLKNNWECRYSPKTKRSPLTRAHLTEVESRLERLEQLFLLIFPREDLDMILKMDSLQDIKALLTGLFVQDNVNKDAVTDRLASVETDMPLTLRQHRISATSSSEESSNKGQRQLTVSPVLQYPALTMIQLIPPLINLLMSIEPDVIYAGHDNTKPDTSSSLLTSLNQLGERQLLSVVKWSKSLPGFRNLHIDDQITLIQYSWMSLMVFGLGWRSYKHVSGQMLYFAPDLILNEQRMKESSFYSLCLTMWQIPQEFVKLQVSQEEFLCMKVLLLLNTIPLEGLRSQTQFEEMRSSYIRELIKAIGLRQKGVVSSSQRFYQLTKLLDNLHDLVKQLHLYCLNTFIQSRALSVEFPEMMSEVIAAQLPKILAGMVKPLLFHKALYETILILLFLDVDT
notes: also called GAL4^BD-PR^LBD-IN5
- binding result [3]: no binding
